Assay [1] addresses Alpha-glucosidase (Saccharomyces cerevisiae S288c, UniProt P53341+P38158+P07265). Put plainly: Inhibition of yeast alpha-glucosidase using p-nitrophenyl glycoside as substrate assessed as release of p-nitrophenol by spectrometric analysis. The assay is classed as protein assay.
The target in assay [2] is T1, Tissue alpha-L-fucosidase (Bos taurus) (UniProt Q2KIM0).
T1 sequence (whole entry): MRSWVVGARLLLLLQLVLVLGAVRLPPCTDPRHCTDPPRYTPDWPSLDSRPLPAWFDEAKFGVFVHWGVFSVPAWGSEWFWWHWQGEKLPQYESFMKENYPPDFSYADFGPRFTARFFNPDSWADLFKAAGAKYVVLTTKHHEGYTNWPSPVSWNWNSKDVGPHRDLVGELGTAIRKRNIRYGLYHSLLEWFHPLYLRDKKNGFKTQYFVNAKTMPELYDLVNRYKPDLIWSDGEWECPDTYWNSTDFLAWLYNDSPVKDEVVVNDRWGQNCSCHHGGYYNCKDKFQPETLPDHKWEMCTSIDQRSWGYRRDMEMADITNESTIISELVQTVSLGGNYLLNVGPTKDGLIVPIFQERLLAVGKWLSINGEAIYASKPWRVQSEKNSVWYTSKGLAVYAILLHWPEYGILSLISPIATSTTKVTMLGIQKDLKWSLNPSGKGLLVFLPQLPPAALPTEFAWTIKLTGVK
In words: Inhibition of bovine kidney alpha-L-fucosidase using p-nitrophenyl glycoside as substrate assessed as release of p-nitrophenol at 1000 uM by spectrometric analysis relative to control.

Assay [3] is described as follows: Inhibition of bovine liver beta-galactosidase using p-nitrophenyl glycoside as substrate assessed as release of p-nitrophenol by spectrometric analysis. Further details: species or system Bos taurus.
For assay [4], the target named is Alpha-galactosidase (Coffea arabica) (UniProt Q42656). In words: Inhibition of coffee bean alpha-galactosidase using p-nitrophenyl glycoside as substrate assessed as release of p-nitrophenol at 1000 uM by spectrometric analysis relative to control.
Assay [5] can be described thus: Inhibition of Escherichia coli beta-glucuronidase using p-nitrophenyl glycoside as substrate assessed as release of p-nitrophenol by spectrometric analysis.
A short description of assay [6]: Inhibition of almond beta-glucosidase using p-nitrophenyl glycoside as substrate assessed as release of p-nitrophenol by spectrometric analysis. On the set-up: species or system Prunus dulcis.
In assay [7] the target is T2, Alpha-mannosidase (Canavalia ensiformis) (UniProt C0HJB3).
T2 sequence (whole entry): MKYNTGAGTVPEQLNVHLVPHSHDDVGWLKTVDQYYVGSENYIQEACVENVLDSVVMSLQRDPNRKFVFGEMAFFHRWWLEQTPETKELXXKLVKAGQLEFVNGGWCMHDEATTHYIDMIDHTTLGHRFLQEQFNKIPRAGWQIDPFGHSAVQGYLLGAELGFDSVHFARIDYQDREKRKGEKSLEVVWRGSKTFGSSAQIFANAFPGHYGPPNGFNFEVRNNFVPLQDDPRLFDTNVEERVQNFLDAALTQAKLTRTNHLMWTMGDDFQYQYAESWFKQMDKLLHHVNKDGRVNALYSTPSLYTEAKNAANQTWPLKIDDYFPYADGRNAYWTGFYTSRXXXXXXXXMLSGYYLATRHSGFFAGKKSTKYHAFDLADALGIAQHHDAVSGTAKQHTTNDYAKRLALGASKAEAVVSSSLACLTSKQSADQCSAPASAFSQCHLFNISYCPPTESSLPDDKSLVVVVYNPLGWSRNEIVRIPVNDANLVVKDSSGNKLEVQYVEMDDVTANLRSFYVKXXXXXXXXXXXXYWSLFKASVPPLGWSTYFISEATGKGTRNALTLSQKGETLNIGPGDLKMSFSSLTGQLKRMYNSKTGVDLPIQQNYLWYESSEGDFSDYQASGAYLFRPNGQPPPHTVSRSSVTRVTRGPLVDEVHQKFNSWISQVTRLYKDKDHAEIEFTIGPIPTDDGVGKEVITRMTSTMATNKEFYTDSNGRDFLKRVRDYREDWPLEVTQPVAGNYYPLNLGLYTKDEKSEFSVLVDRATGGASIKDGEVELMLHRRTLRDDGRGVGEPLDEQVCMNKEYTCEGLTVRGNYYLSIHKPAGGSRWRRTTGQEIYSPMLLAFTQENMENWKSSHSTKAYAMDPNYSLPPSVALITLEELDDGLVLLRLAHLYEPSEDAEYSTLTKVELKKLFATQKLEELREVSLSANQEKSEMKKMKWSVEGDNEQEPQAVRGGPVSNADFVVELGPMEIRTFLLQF
In words: Inhibition of jack bean alpha-mannosidase using p-nitrophenyl glycoside as substrate assessed as release of p-nitrophenol at 1000 uM by spectrometric analysis relative to control.

Assay [8] can be described thus: Inhibition of snail beta-mannosidase using p-nitrophenyl glycoside as substrate assessed as release of p-nitrophenol by spectrometric analysis. Further details: species or system Helix pomatia.
A short description of assay [9]: Inhibition of Aspergillus niger amyloglucosidase using p-nitrophenyl glycoside as substrate assessed as release of p-nitrophenol by spectrometric analysis.
The target in assay [10] is T3, Lysosomal acid glucosylceramidase (Homo sapiens, UniProt P04062).
T3 sequence (P04062 whole entry): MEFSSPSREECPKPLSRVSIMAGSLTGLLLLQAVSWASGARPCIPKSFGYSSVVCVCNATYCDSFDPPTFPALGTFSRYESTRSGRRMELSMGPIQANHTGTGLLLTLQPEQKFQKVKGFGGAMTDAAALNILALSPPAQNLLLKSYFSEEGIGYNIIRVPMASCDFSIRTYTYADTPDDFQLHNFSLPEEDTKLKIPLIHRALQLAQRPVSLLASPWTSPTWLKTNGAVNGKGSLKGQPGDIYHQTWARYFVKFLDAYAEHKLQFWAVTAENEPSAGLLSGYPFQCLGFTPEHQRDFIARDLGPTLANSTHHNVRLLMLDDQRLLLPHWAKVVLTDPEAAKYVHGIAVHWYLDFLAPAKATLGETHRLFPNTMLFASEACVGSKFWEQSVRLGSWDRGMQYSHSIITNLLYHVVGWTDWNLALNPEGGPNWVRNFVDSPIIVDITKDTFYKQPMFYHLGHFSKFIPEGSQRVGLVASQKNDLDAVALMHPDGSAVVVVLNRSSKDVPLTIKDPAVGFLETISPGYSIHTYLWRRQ
Put plainly: Inhibition of human lysosome beta-glucosidase using p-nitrophenyl glycoside as substrate assessed as release of p-nitrophenol by spectrometric analysis.

A short description of assay [11]: Inhibition of rice alpha-glucosidase using p-nitrophenyl glycoside as substrate assessed as release of p-nitrophenol by spectrometric analysis. Further details: species or system Oryza sativa.

Drawing on ChEMBL document CHEMBL5579830, “Design and synthesis of 6-C-alkyl-DMDP type nanomolar inhibitors of β-galactosidase and β-glucosidase based on broussonetine S and related derivatives” (Eur J Med Chem, 2024), this text covers IC50 and inhibition for 18 compounds.

One may read the IC50 as the point on the concentration scale where inhibition reaches its midpoint. One may read the inhibition as the drop in the measured response relative to a control, in per cent.

SMILES strings stand for the structures.

Chain of Alpha-galactosidase (Coffea arabica) (Q42656 16-378 limits assumed): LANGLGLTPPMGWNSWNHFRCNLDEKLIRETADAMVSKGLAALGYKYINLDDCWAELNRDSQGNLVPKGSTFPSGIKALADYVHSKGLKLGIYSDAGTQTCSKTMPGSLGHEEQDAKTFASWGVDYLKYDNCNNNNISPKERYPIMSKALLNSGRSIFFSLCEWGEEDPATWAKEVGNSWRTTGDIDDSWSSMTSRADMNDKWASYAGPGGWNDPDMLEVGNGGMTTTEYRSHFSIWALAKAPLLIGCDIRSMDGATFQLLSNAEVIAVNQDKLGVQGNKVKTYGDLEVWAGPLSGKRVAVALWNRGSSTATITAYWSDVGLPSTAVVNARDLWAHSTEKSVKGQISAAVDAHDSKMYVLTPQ

With `CCCCCCCCC[C@H](O)[C@H]1N[C@H](CO)[C@@H](O)[C@@H]1O.Cl`, the IC50 in assay [1] stood at 53 µM.

Turning to `OCCC[C@H](O)CCCCCCCC[C@H](O)[C@H]1N[C@H](CO)[C@@H](O)[C@@H]1O`, the inhibition in [2] is 6%; in [4] it was 4.7%; in [7] it was 0%. Further, the IC50 was 0.062 µM in assay [3], 2.9 µM in assay [5] and 2.8 µM in assay [6].

On to `Cl.OCCC[C@@H](O)CCCCCCCC[C@@H](O)[C@@H]1N[C@@H](CO)[C@H](O)[C@H]1O`, for which the inhibition in assay [2] worked out at 8.6%; in assay [4] it was 4.1%; in assay [7] it was 0%. For the same compound, the results for the IC50 in assay [3], in [5] and in assay [1] were 2.3 µM, 46 µM and 49 µM, respectively.

For `CCCCCC[C@H](O)[C@H]1N[C@H](CO)[C@@H](O)[C@@H]1O`, the 50% inhibitory concentration (IC50) came to 0.36 µM in [3] and 0.64 µM in assay [6]. The inhibition in assay [4] came out at 0%; in assay [7], 2.1%.

Take `CCCCCCCCC[C@@H](O)[C@H]1N[C@H](CO)[C@@H](O)[C@@H]1O.Cl`: the concentration for half-maximal inhibition (IC50) in assay [1] amounted to 21 µM.

As for `CCCCCCC[C@@H](O)[C@H]1N[C@H](CO)[C@@H](O)[C@@H]1O`, the IC50 in assay [8] turned out to be 96 µM; in assay [3] it was 0.015 µM; in [9], 91 µM; in assay [10], 14 µM; in assay [6] it was 0.12 µM. Also, the inhibition in assay [4] was found to be 0%; in assay [7], 1.7%.

For the compound `OCCC[C@@H](O)CCCCCCCC[C@H](O)C1N[C@H](CO)[C@@H](O)[C@@H]1O` (single isomer, unassigned), the inhibition came to 0.43% in assay [2], 4.6% in [4] and 0% in assay [7]. For the same compound, the IC50 in assay [3] is 0.046 µM; in assay [5] it was 2.5 µM; in [6] it was 1.8 µM.

For the compound `OCCC[C@@H](O)CCCCCCCC[C@@H](O)[C@H]1N[C@H](CO)[C@@H](O)[C@@H]1O`, the IC50 in assay [8] was 62 µM; in assay [3], 0.005 µM; in assay [5], 3.3 µM; in [9], 62 µM; in assay [6], 0.53 µM. Besides, the inhibition in assay [2] was determined as 6.5%; in assay [4], 4.4%; in assay [7], 0%.

Turning to `OCCC[C@@H](O)CCCCCCCCC[C@H]1N[C@H](CO)[C@@H](O)[C@@H]1O`, the inhibition in assay [2] worked out at 0%; in assay [4], 0%; in assay [7], 2.5%. Further, the concentration for half-maximal inhibition (IC50) in [3] turned out to be 2.3 µM; in [5], 86 µM.

As to `OCCC[C@H](O)CCCCCCCC[C@@H](O)[C@@H]1N[C@@H](CO)[C@H](O)[C@H]1O`, the values for the inhibition in assay [2], in assay [4] and in assay [7] were 1.1%, 4.11% and 0%, respectively. The results for the IC50 in assay [3] and in [5] were 3.9 µM and 35 µM, respectively.

Turning to `CCCCCCC[C@@H](O)[C@@H]1N[C@@H](CO)[C@H](O)[C@H]1O`, in [3], the IC50 is 29 µM. In addition, the inhibition in [4] and in assay [7] was 0% throughout.

Turning to `OCCC[C@@H](O)CCCCCCCC[C@H](O)[C@@H]1N[C@@H](CO)[C@H](O)[C@H]1O`, the inhibition is 4.3% in [2], 4.8% in assay [4] and 2.2% in assay [7]. The IC50 in [3] came out at 0.74 µM; in [11] it was 11 µM; in assay [5], 56 µM; in assay [6] it was 92 µM.

With `OCCC[C@H](O)CCCCCCCC[C@@H](O)[C@H]1N[C@H](CO)[C@@H](O)[C@@H]1O`, the half-inhibitory concentration (IC50) in [8] turned out to be 71 µM; in [3] it was 0.007 µM; in assay [5] it was 2.7 µM; in [9] it was 73 µM; in [6] it was 0.69 µM. Further, the inhibition came out at 0.86% in assay [2], 4.5% in assay [4] and 0% in assay [7].

In the case of `OCCC[C@H](O)CCCCCCCC[C@H](O)[C@@H]1N[C@@H](CO)[C@H](O)[C@H]1O`, the figures for the inhibition in assay [2], in [4] and in assay [7] were 5.9%, 4.9% and 0%, respectively. The IC50 in assay [3] was determined as 5.1 µM; in [11], 7.3 µM; in assay [5], 29 µM.

Consider `CCCCCCC[C@H](O)[C@H]1N[C@H](CO)[C@@H](O)[C@@H]1O`, for which the figures for the half-inhibitory concentration (IC50) in [3] and in assay [6] were 0.39 µM and 0.54 µM, respectively. Moreover, the inhibition is 0% in [4] and 0.2% in [7].

For the compound `CCCCCCCC[C@@H](O)[C@H]1N[C@H](CO)[C@@H](O)[C@@H]1O.Cl`, the IC50 in assay [1] came to 28 µM.

Take `CCCCCC[C@@H](O)[C@H]1N[C@H](CO)[C@@H](O)[C@@H]1O`: the half-maximal inhibitory concentration (IC50) in [3] came to 0.05 µM; in assay [9] it was 92 µM; in [10] it was 73 µM; in assay [6], 0.2 µM. In addition, the results for the inhibition in [4] and in [7] were 0% and 2.1%, respectively.

In the case of `CCCCCCCC[C@H](O)[C@H]1N[C@H](CO)[C@@H](O)[C@@H]1O.Cl`, in assay [1], the concentration for half-maximal inhibition (IC50) was 101 µM.
